From US20140228440A1, “1-AMINO-ALKYLCYCLOHEXANE DERIVATIVES FOR THE TREATMENT OF INFLAMMATORY SKIN DISEASES” (MERZ PHARMA GmbH & CO. KGaA, priority 2008, published 2014)

Key:
Format in all cases: cell-based
Details in all cases: pH 5.5
[1] = test system: Propionibacterium avidum ATCC 25577; test: MIC and MBC by the agar dilution method
Protocol: (§1) To assess the anti-microbial potency of Neramexane against acne relevant bacterias the minimal inhibitory concentration (MIC) and minimal bactericidal concentration (MBC) against the following bacterias is established: The MICs of the samples are determined using the agar dilution method based on DIN 58940. Petri dishes of 5.5 cm diameter are poured with 2.5 ml of freshly prepared Mueller-Hinton agar (Merck company, Cat-No 1.05437) or Wilkins-Chalgren-Agar (Oxoid company, Cat-No CM643), maintained in liquid form at 50° C., to which the sample dilutions at various concentrations have been added at 50.0 vol.-%. To prepare the starting sample dilutions, a 12.5%, 3.12% suspension of the respective sample solution is prepared with Aqua purificata. From these stock-solutions, further dilutions are prepared with Aqua purificata. All test compounds are adjusted to pH 5.5. For test product no. 1, separate dilutions adjusted to pH 6.0 and pH 7.4 are also prepared. For inoculation, 1 μl of the respective germ suspension is placed on the centre of each agar plate. After drying, inoculated plates are incubated at 36.0±2.0° C. The basis for the length of incubation period is the respective growth control cultivated in parallel. The test microbe suspension is prepared by inoculating a few individual colonies of the respective bacteria into sterile saline solution until a turbidity corresponding to the McFarland standard 1.0 (approximately 10^8 cfu/ml) is reached. After that, the test microbe suspensions are further diluted 1:10 with saline solution and the microbial counts (see Table 21) are determined by the surface spread method using a spiral plater. The agar plates are incubated under the conditions given in Table 22 and subsequently evaluated. The MIC-values as given represent the lowest concentration of the active substance at which there is no macroscopically visible growth. Minimal, barely visible growth or few small individual colonies are evaluated as inhibition. [table] All negative tests of the determination of the minimal bactericial concentration are the basis of verification of remaining germs, the inoculated agar segments are cut and put in Mueller-Hinton-Bouillon (germ 1) or Wilkins-Chalgren-Bouillon (germs 2-4). After an adequate incubation period at 36.0±2.0° C. (as judged from a control without test compound), the tests are checked manually on microbial growth (=turbidity) and the minimal bactericidal concentration is determined. MBC indicates the concentration without marked turbidity. Grown germs are checked for identity to rule out unspecific contaminations. The following results are summarized and tabulated: • a) Results of the Minimal Inhibitory Concentration (MIC)* • b) Results of the Minimal Bactericidal Concentration (MBC) *The MIC is the concentration without macroscopical growth. Scarcely apparent, minimum growth or few single colonies are not considered. The controls must have a respectively good developed growth. There must be no growth on the agar plates for the sterile control. The growth of bacteria is indicated for the duplicate plates by a +(i.e., growth) or a −(i.e., no growth), +− indicates weak growth on both plates or growth on one plate and no growth on the other plate. All bacteria show appropriate growth on the respective control plate not containing any test compound. No influence of the used diluent (Aqua purifacata) was observed. No contamination is observed on the control-plates.

[2] = test system: Staphylococcus epidermidis ATCC 12228; test: MIC and MBC by the agar dilution method
Protocol: as §1

[3] = test system: Propionibacterium acnes (ATCC 11828); test: Quantitative suspension assay (bactericidal activity)
Protocol: 1.0 ml of the bacterial test suspension (microbial count: 1.5−5.0×10^8 cfu/ml) and 1.0 ml distilled water is added to 8.0 ml of the product test solution. The stopwatch is started. At the end of the exposure time, 0.1 ml of the test mixture is added to 50 ml rinsing liquid (=test neutralization mixture, TNM, 10°). Two dilutions of the TNM are prepared by pipetting […] of TNM to 9.0 ml of tryptone-NaCl (represents a dilution 10^−2 of TNM before filtration) resp. 50 μl of TNM to 9.0 ml of tryptone-NaCl (represents a dilution 10^−3 of TNM before filtration). The TNM (in duplicate) and each of the dilutions are transferred to a membrane filter device fitted with a membrane filter (0.45 μm) and filtered immediately. Subsequently, the filter is washed with 150 ml distilled water. The membranes are transferred to agar plates. After incubation under appropriate conditions, colonies are counted and reported.
Neramexane-mesylate is tested at 4 different concentrations (w/w 0.1%, 0.5%, 2.0%, 5.0%) to assess its bactericidal activity against Propionibacterium acnes (ATCC 11828). In addition to the effect of the concentration of Neramexane, the relevance of the contact time with the bacterias is assessed at 4 different incubation times (5 min, 30 min, 6 h, 24 h).
After the desired incubation time, the complete elimination of the test compound from the assay is ensured by membrane filtration. Bacterial suspensions with a microbial count ranging from 1.5−5.0×10^8 cfu/ml are used. All assays are performed at the skin relevant pH of 5.5.
The read out is reduction of the bacterial number in the assay, expressed as log-reduction. This reduction of the bacterial count is correlated to the ability of a compound to kill the bacteria, thus, corresponding to its MBC value. A >5-fold log reduction is required for a surface-disinfection compound and a >3-fold log reduction for a hand-disinfection compound.

CC1(C)CC(C)(C)CC(C)(N)C1.CS(=O)(=O)O [Neramexane mesylate]
<1.41: log-reduction ([3]; 0.1%, contact time 5 min) | log-reduction ([3]; 0.1%, contact time 30 min) | log-reduction ([3]; 0.1%, contact time 6 h) | log-reduction ([3]; 0.1%, contact time 24 h) | log-reduction ([3]; 0.5%, contact time 5 min) | log-reduction ([3]; 0.5%, contact time 30 min) | log-reduction ([3]; 2.0%, contact time 5 min)
>5.48: log-reduction ([3]; 2.0%, contact time 6 h) | log-reduction ([3]; 2.0%, contact time 24 h) | log-reduction ([3]; 5.0%, contact time 30 min) | log-reduction ([3]; 5.0%, contact time 6 h) | log-reduction ([3]; 5.0%, contact time 24 h)
1.56%: MBC [2]
+ +: growth of bacteria on duplicate plates (MIC determination) ([1]; final concentration 0.01 %) | growth of bacteria on duplicate plates (MIC determination) ([1]; final concentration 0.04 %) | growth of bacteria (MBC determination) ([1]; final concentration 0.08 %) | growth of bacteria (MBC determination) ([1]; final concentration 0.16 %) | growth of bacteria (MBC determination) ([1]; final concentration 0.31 %) | growth of bacteria on duplicate plates (MIC determination) ([2]; final concentration 0.01 %) | growth of bacteria on duplicate plates (MIC determination) ([2]; final concentration 0.04 %) | growth of bacteria on duplicate plates (MIC determination) ([2]; final concentration 0.08 %) | growth of bacteria (MBC determination) ([2]; final concentration 0.16 %) | growth of bacteria (MBC determination) ([2]; final concentration 0.31 %) | growth of bacteria (MBC determination) ([2]; final concentration 0.63 %)
0.08%: MIC [1]
2.6: log-reduction ([3]; 0.5%, contact time 6 h)
0.63%: MBC [1]
0.16%: MIC [2]
− −: growth of bacteria on duplicate plates (MIC determination) ([1]; final concentration 0.08 %) | growth of bacteria on duplicate plates (MIC determination) ([1]; final concentration 0.16 %) | growth of bacteria on duplicate plates (MIC determination) ([1]; final concentration 0.31 %) | growth of bacteria (MBC determination) ([1]; final concentration 0.63 %) | growth of bacteria on duplicate plates (MIC determination) ([1]; final concentration 0.63 %) | growth of bacteria (MBC determination) ([1]; final concentration 1.56 %) | growth of bacteria on duplicate plates (MIC determination) ([1]; final concentration 1.56 %) | growth of bacteria (MBC determination) ([1]; final concentration 2.50 %) | growth of bacteria on duplicate plates (MIC determination) ([1]; final concentration 2.50 %) | growth of bacteria (MBC determination) ([1]; final concentration 3.13 %) | growth of bacteria on duplicate plates (MIC determination) ([1]; final concentration 3.13 %) | growth of bacteria (MBC determination) ([1]; final concentration 6.25 %) | growth of bacteria on duplicate plates (MIC determination) ([1]; final concentration 6.25 %) | growth of bacteria on duplicate plates (MIC determination) ([2]; final concentration 0.16 %) | growth of bacteria on duplicate plates (MIC determination) ([2]; final concentration 0.31 %) | growth of bacteria on duplicate plates (MIC determination) ([2]; final concentration 0.63 %) | growth of bacteria (MBC determination) ([2]; final concentration 1.56 %) | growth of bacteria on duplicate plates (MIC determination) ([2]; final concentration 1.56 %) | growth of bacteria (MBC determination) ([2]; final concentration 2.50 %) | growth of bacteria on duplicate plates (MIC determination) ([2]; final concentration 2.50 %) | growth of bacteria (MBC determination) ([2]; final concentration 3.13 %) | growth of bacteria on duplicate plates (MIC determination) ([2]; final concentration 3.13 %) | growth of bacteria (MBC determination) ([2]; final concentration 6.25 %) | growth of bacteria on duplicate plates (MIC determination) ([2]; final concentration 6.25 %)
4.33: log-reduction ([3]; 5.0%, contact time 5 min)
